Measurements published in patent US20240025906A1 (NEURON23, INC., priority 2022, published 2024).
Like-named read-outs stand apart in the source and are kept apart here.

Experiments:
[1] = system: JAK1/TYK2 pSTAT5 (Tyr694/699) in THP-1 cell line; experiment: IFNa-stimulated JAK1/TYK2 pSTAT5 (Tyr694/699) inhibition cellular assay, AlphaLISA; format: cell-based; conditions: Homo sapiens, THP-1 cells, AlphaLISA (Assay B)
How it was run: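 THP-1 cells (2e4/well in HBSS) were preincubated with compound (8 points, 6-fold steps from 10000 nM final) for 1 h at 37 °C, then stimulated with IFNa (added at 100 ng/mL) for 30 min. Lysate pSTAT5 was read by AlphaLISA at 615 nm. IC50 came from a 4-parameter fit with bottom 0 and Hill −1.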

[2] = target: T1, TYK2 JH2 (Homo sapiens, UniProt P29597); experiment: TYK2 JH2 binding assay (KINOMEscan KdELECT competitive binding); conditions: TYK2 JH2 domain
T1 construct: purchased DiscoverX (KINOMEscan KdELECT service); host or cells: E. coli BL21-derived (T7 phage display) or HEK-293
How it was run: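 The assay measures displacement of DNA- or phage-tagged TYK2 pseudokinase domain from an affinity resin; compound binding lowers the amount captured, read by qPCR. Incubation lasts 1 h at room temperature.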

[3] = IFNa-stimulated, read-out: Cellular_THP1_IFNa-pSTATS_TYK2
[4] = KINOMEscan KdELECT (Assay A), read-out: Biochemical TYK2_DiscoverX_JH2_BND_Kd
[5] = IFNa-stimulated, read-out: Cellular THP1_IFNa-pSTATS_IC50
[6] = KINOMEscan KdELECT (Assay A), read-out: Biochemical TYK2_JH2_Kd
[7] = DiscoverX KINOMEscan KdELECT (Assay A), read-out: Biochemical TYK2_DiscoverX_JH2_BND_Kd

T1 sequence (P29597 589-875 limits assumed): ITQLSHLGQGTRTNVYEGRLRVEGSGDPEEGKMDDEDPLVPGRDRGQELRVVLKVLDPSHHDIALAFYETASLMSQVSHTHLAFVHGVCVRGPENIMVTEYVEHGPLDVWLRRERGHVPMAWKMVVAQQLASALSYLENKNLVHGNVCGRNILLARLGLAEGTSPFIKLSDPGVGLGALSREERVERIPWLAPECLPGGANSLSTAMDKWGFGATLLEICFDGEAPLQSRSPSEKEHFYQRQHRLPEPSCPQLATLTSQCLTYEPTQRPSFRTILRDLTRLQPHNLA

| SMILES | IC50 [1, 3] [nM] | Kd [2, 4] [nM] | Kd [2, 7] [nM] | also measured |
| --- | --- | --- | --- | --- |
| CNc1ncc(C#Cc2ccc(-n3ccccc3=O)cc2)c2cc(NC(=O)C3CC3)ncc12 [Example 671, N-(8-(methylamino)-5-((4-(2-oxopyridin-1(2H)-yl)phenyl)ethynyl)-2,7-naphthyridin-3-yl)cyclopropanecarboxamide] | ≤ 500 | ≤ 100 | – | – |
| CNc1ncc(C#Cc2ccc(N3CC4CN(C)CC(C3)O4)cn2)c2cc(NC(=O)C3CC3)ncc12 [Example 733, N-(5-((5-(7-methyl-9-oxa-3,7-diazabicyclo[3.3.1]nonan-3-yl)pyridin-2-yl)ethynyl)-8-(methylamino)-2,7-naphthyridin-3-yl)cyclopropanecarboxamide] | ≤ 500 | ≤ 100 | – | – |
| CNc1ncc(C2CCCCC2)c2cc(NC(=O)C3CC3)ncc12 [Example 70, N-(5-cyclohexyl-8-(methylamino)-2,7-naphthyridin-3-yl)cyclopropanecarboxamide] | – | – | – | IC50 [1, 5]: > 500 nM; Kd [2, 6]: ≤ 100 nM |
| CNc1ncc(-c2nc3cc(N4CCOCC4)ccc3o2)c2cc(NC(=O)[C@H]3C[C@H]3C)ncc12 [Example 423, (1S,2R)-2-methyl-N-(8-(methylamino)-5-(5-morpholinobenzo[d]oxazol-2-yl)-2,7-naphthyridin-3-yl)cyclopropane-1-carboxamide] | ≤ 500 | – | ≤ 100 | – |
| CNc1ncc(C#Cc2ccccc2C(C)(C)O)c2cc(NC(=O)C3CC3)ncc12 [Example 652, N-(5-((2-(2-hydroxypropan-2-yl)phenyl)ethynyl)-8-(methylamino)-2,7-naphthyridin-3-yl)cyclopropanecarboxamide] | ≤ 500 | ≤ 100 | – | – |
| CCNc1ncc(-c2nc3cc(OC)ccc3o2)c2cc(NC(=O)C3CC3)ncc12 [Example 459, N-(8-(ethylamino)-5-(5-methoxybenzo[d]oxazol-2-yl)-2,7-naphthyridin-3-yl)cyclopropanecarboxamide] | ≤ 500 | – | ≤ 100 | – |
| CNc1ncc(C#Cc2ccc(N3CCOCC3)cc2C)c2cc(NC(=O)C3CC3)ncc12 [Example 639, N-(5-((2-methyl-4-morpholinophenyl)ethynyl)-8-(methylamino)-2,7-naphthyridin-3-yl)cyclopropanecarboxamide] | ≤ 500 | ≤ 100 | – | – |
| CNc1ncc(-c2nc3ccccc3o2)c2c1cnc1[nH]ccc12 [Example 825, 9-(benzo[d]oxazol-2-yl)-N-methyl-3H-pyrrolo[2,3-c][2,7]naphthyridin-6-amine] | > 500 | ≤ 100 | – | – |
| CNc1ncc(-c2nc3cc(Oc4ccn(C)n4)ccc3o2)c2cc(NC(=O)C3CC3)ncc12 [Example 341, N-(5-(5-((1-methyl-1H-pyrazol-3-yl)oxy)benzo[d]oxazol-2-yl)-8-(methylamino)-2,7-naphthyridin-3-yl)cyclopropanecarboxamide] | ≤ 500 | – | ≤ 100 | – |
| CNc1ncc(C#Cc2ccc(Cl)cn2)c2cc(NC(=O)C3CC3)ncc12 [Example 995, N-(5-((5-chloropyridin-2-yl)ethynyl)-8-(methylamino)-2,7-naphthyridin-3-yl)cyclopropanecarboxamide] | – | ≤ 100 | – | IC50 ([1]; IFNa-stimulated pSTAT5 (Tyr694/699), read-out: Cellular_THP1_IFNa-pSTATS_TYK2): ≤ 500 nM |
| CNc1ncc(-c2nc3cc(O[C@H]4C[C@H](COC)C4)ccc3o2)c2cc(NC(=O)C3CC3)ncc12 [Example 348, N-(5-(5-((1r,3r)-3-(methoxymethyl)cyclobutoxy)benzo[d]oxazol-2-yl)-8-(methylamino)-2,7-naphthyridin-3-yl)cyclopropanecarboxamide] | ≤ 500 | – | ≤ 100 | – |
| CNc1ncc(-c2nc3cc(N4CC(OCCC#N)C4)ccc3o2)c2cc(NC(=O)C3CC3)ncc12 [Example 323, N-(5-(5-(3-(2-cyanoethoxy)azetidin-1-yl)benzo[d]oxazol-2-yl)-8-(methylamino)-2,7-naphthyridin-3-yl)cyclopropanecarboxamide] | ≤ 500 | – | ≤ 100 | – |
| CNc1ncc(-c2nc3ccc(N4CCOCC4)cn3n2)c2cc(Nc3ncccc3F)ncc12 [Example 537, N^6-(3-fluoropyridin-2-yl)-N^1-methyl-4-(6-morpholino-[1,2,4]triazolo[1,5-a]pyridin-2-yl)-2,7-naphthyridine-1,6-diamine] | ≤ 500 | – | ≤ 100 | – |
| CNc1ncc(-c2nc3cc(N4CCOCC4)ccc3o2)c2cc(NC(=O)C3CC3)nnc12 [Example 914, N-(8-(methylamino)-5-(5-morpholinobenzo[d]oxazol-2-yl)pyrido[3,4-c]pyridazin-3-yl)cyclopropancarboxamide] | ≤ 500 | ≤ 100 | – | – |
| CNc1ncc(-c2cnsc2)c2cc(NC(=O)C3CC3)ncc12 [Example 83, N-(5-(isothiazol-4-yl)-8-(methylamino)-2,7-naphthyridin-3-yl)cyclopropanecarboxamide] | – | – | – | IC50 [1, 5]: > 500 nM; Kd [2, 6]: ≤ 100 nM |
| CNc1ncc(-c2nc3cc(CC(F)(F)F)ccc3o2)c2cc(NC(=O)C3CC3)ncc12 [Example 255, N-(8-(methylamino)-5-(5-(2,2,2-trifluoroethyl)benzo[d]oxazol-2-yl)-2,7-naphthyridin-3-yl)cyclopropanecarboxamide] | ≤ 500 | – | ≤ 100 | – |
| CNc1ncc(C#Cc2ccc(CN3CCOCC3)cc2)c2cc(NC(=O)C3CC3)ncc12 [Example 820, N-(8-(methylamino)-5-((4-(morpholinomethyl)phenyl)ethynyl)-2,7-naphthyridin-3-yl)cyclopropanecarboxamide] | ≤ 500 | ≤ 100 | – | – |
| CNc1ncc(-c2nc3cc(OCCN4CCOCC4)ccc3o2)c2cc(NC(=O)C3CC3)ncc12 [Example 235, N-(8-(methylamino)-5-(5-(2-morpholinoethoxy)benzo[d]oxazol-2-yl)-2,7-naphthyridin-3-yl)cyclopropanecarboxamide] | ≤ 500 | – | ≤ 100 | – |
| CNc1ncc(-c2ccc(Oc3cncs3)cc2)c2cc(NC(=O)C3CC3)ncc12 [Example 857, N-(8-(methylamino)-5-(4-(thiazol-5-yloxy)phenyl)-2,7-naphthyridin-3-yl)cyclopropanecarboxamide] | ≤ 500 | ≤ 100 | – | – |
| CNc1ncc(-c2nc3ccc(N4CC5CN(C)CC(C4)O5)cn3n2)c2cc(NC(=O)C3(F)CC3)ncc12 [Example 559, 1-fluoro-N-(5-(6-(7-methyl-9-oxa-3,7-diazabicyclo[3.3.1]nonan-3-yl)-[1,2,4]triazolo[1,5-a]pyridin-2-yl)-8-(methylamino)-2,7-naphthyridin-3-yl)cyclopropane-1-carboxamide] | ≤ 500 | – | ≤ 100 | – |
| CNc1ncc(C#Cc2sccc2CO)c2cc(NC(=O)C3CC3)ncc12 [Example 960, N-(5-((3-(hydroxymethyl)thiophen-2-yl)ethynyl)-8-(methylamino)-2,7-naphthyridin-3-yl)cyclopropanecarboxamide] | ≤ 500 | ≤ 100 | – | – |
| CNc1ncc(-c2ccn(CC(C)C)n2)c2cc(NC(=O)C3CC3)ncc12 [Example 149, N-(5-(1-isobutyl-1H-pyrazol-3-yl)-8-(methylamino)-2,7-naphthyridin-3-yl)cyclopropanecarboxamide] | – | – | – | IC50 [1, 5]: > 500 nM; Kd [2, 6]: ≤ 100 nM |
| CNc1ncc(-c2nc3cc(OCF)ccc3o2)c2cc(NC(=O)C3CC3)ncc12 [Example 339, N-(5-(5-(fluoromethoxy)benzo[d]oxazol-2-yl)-8-(methylamino)-2,7-naphthyridin-3-yl)cyclopropanecarboxamide] | ≤ 500 | – | ≤ 100 | – |
| CNc1ncc(-c2nc3ccc(N4CCOCC4)cc3o2)c2cc(NC(=O)C3CC3)nnc12 [Example 913, N-(8-(methylamino)-5-(6-morpholinobenzo[d]oxazol-2-yl)pyrido[3,4-c]pyridazin-3-yl)cyclopropanecarboxamide] | ≤ 500 | ≤ 100 | – | – |
| CNc1ncc(-c2nc3cc(N4CC(OC)C4)ccc3o2)c2cc(NC(=O)C3CC3)ncc12 [Example 280, N-(5-(5-(3-methoxyazetidin-1-yl)benzo[d]oxazol-2-y1)-8-(methylamino)-2,7-naphthyridin-3-yl)cyclopropanecarboxamide] | ≤ 500 | – | ≤ 100 | – |
| CNc1ncc(-c2nc3cc(N4CCC4)ccn3n2)c2cc(NC(=O)C3CC3)ncc12 [Example 188, N-(5-(7-(azetidin-1-yl)-[1,2,4]triazolo[1,5-a]pyridin-2-yl)-8-(methylamino)-2,7-naphthyridin-3-yl)cyclopropanecarboxamide] | – | – | – | IC50 [1, 5]: ≤ 500 nM; Kd [2, 6]: ≤ 100 nM |
| CNc1ncc(-c2nc3ncccc3o2)c2cc(NC(=O)C3CC3)ncc12 [Example 358, N-(8-(methylamino)-5-(oxazolo[4,5-b]pyridin-2-yl)-2,7-naphthyridin-3-yl)cyclopropanecarboxamide] | ≤ 500 | – | ≤ 100 | – |
| CNc1ncc(-c2nc3cc(OCc4ccccc4)ccc3o2)c2cc(NC(=O)C3CC3)ncc12 [Example 234, N-(5-(5-(benzyloxy)benzo[d]oxazol-2-yl)-8-(methylamino)-2,7-naphthyridin-3-yl)cyclopropanecarboxamide] | ≤ 500 | – | ≤ 100 | – |
